Test results as given in the C3SDB collision cross section collection.

Key:
[1] = instrument: DT, stepped-field
[2] = instrument: DT, single field, calibrated with Agilent tune mix (Agilent)

Row | collision cross section (N2) ([1]; [M+H]+) [Å²] | collision cross section (N2) ([1]; [M+Na]+) [Å²] | Structure (SMILES) | other results
1 | 222.79 | 232.01 | NC(=O)c1ccc[n+]([C@@H]2O[C@H](COP(=O)(O)OP(=O)(O)OC[C@H]3O[C@@H](n4cnc5c(=O)nc[nH]c54)[C@H](O)[C@@H]3O)[C@@H](O)[C@H]2O)c1 [Nicotinamide Hypoxanthine Dinucleotide] | –
2 | 128.35 | – | O=C(O)c1cccnc1 [Nicotinic Acid] | –
3 | 187.54 | – | CCCCCCCCCCCCCCCCCCCCCCCC(=O)OC [Methyl Tetracosanoate] | –
4 | 135.86 | – | O=C[C@H](O)COP(=O)(O)O [D-Glyceraldehyde 3-Phosphate] | –
5 | – | 191.96 | C=C[C@H]1[C@H](O[C@@H]2O[C@H](CO)[C@@H](O)[C@H](O)[C@H]2O)OC=C(C(=O)OC)[C@H]1CC=O [Secologanin] | –
6 | – | 234.12 | OC[C@H]1O[C@@H](O[C@H]2[C@H](O)[C@H](O)[C@H](O[C@H]3[C@H](O)[C@H](O)[C@H](O[C@H]4[C@H](O)[C@H](O)C(O)O[C@@H]4CO)O[C@@H]3CO)O[C@@H]2CO)[C@@H](O)[C@@H](O)[C@@H]1O (stereo partly drawn) [Mannotetraose] | –
7 | 145.34 | – | Cc1ncsc1CCO [4-Methyl-5-Thiazolethanol] | –
8 | – | 138.07 | CC(=O)N[C@@H](C)C(=O)O [N-Acetyl-L-alanine] | –
9 | 136.57 | – | Cn1cncc1C[C@H](N)C(=O)O [3-Methyl-L-histidine] | –
10 | 203.2 | – | CCCCCCSC[C@H](NC(=O)CC[C@H](N)C(=O)O)C(=O)NCC(=O)O [S-Hexyl-glutathione] | –

The remaining lines, values behind:

Row | Structure (SMILES) | collision cross section (N2) ([1]; [M+H]+) [Å²] | collision cross section (N2) ([1]; [M+Na]+) [Å²] | other results
11 | NCCP(=O)(O)O [2-Aminoethylphosphonate] | 132.21 | – | –
12 | CCCCC[C@H](O)/C=C/[C@@H]1[C@@H](C/C=C\CCCC(=O)O)[C@@H]2C[C@H]1OO2 [Prostaglandin H2] | – | 202.63 | –
13 | C1=Cc2c3ccc4ccccc4c3cc3cccc1c23 [Benz(j)aceanthrylene] | 155.08 | – | –
14 | OC[C@H]1O[C@H](OC[C@H]2OC(O)(CO)[C@@H](O)[C@@H]2O)[C@H](O)[C@@H](O)[C@@H]1O (stereo partly drawn) [Palatinose] | – | 177.31 | –
15 | O=C(O)[C@H]1OC(O)[C@H](O)[C@@H](O)[C@@H]1O (stereo partly drawn) [D-Glucuronate] | – | 153.13 | –
16 | c1cncc(C2CCCCN2)c1 (stereo not drawn) [Anabasine] | 140.18 | – | –
17 | Cc1ccc2cc3ccccc3cc2c1 [2-Methylanthracene] | 138.61 | – | –
18 | NCCC(=O)N[C@@H](Cc1cnc[nH]1)C(=O)O [Carnosine] | 152.18 | – | –
19 | CCCCC/C=C\C\C=C/C=C/C=C/[C@@H](SC[C@H](NC(=O)CC[C@H](N)C(=O)O)C(=O)NCC(=O)O)[C@@H](O)CCCC(=O)O [Leukotriene C4] | 257.4 | 260.57 | –
20 | NC(=O)CC[C@H](NC(=O)Cc1ccccc1)C(=O)O [Phenylacetyl L-Glutamine] | 160.93 | 171.25 | –
21 | CC/C=C\C/C=C\C/C=C\C/C=C\CCCCC(=O)OC[C@H](COP(=O)(O)O[C@H]1C(O)C(O)C(O)[C@@H](O)C1O)OC(=O)CCCCCCCCCCCCCCCCCC (stereo partly drawn) [PI(37:4)] | – | – | collision cross section (N2) ([2]; [M+H]+): 298.9 Å²; collision cross section (N2) ([2]; [M+NH4]+): 300.2 Å²; collision cross section (N2) ([2]; [M+Na]+): 297.6 Å²
22 | CCCCCC/C=C\CCCCCCCC(=O)OC[C@H](COP(=O)(O)O[C@H]1C(O)C(O)C(O)[C@@H](O)C1O)OC(=O)CCCCCCCCCCCCCCCCCCCCC (stereo partly drawn) [PI(38:1)] | – | – | collision cross section (N2) ([2]; [M-H]-): 296.1 Å²
23 | CO[C@@H]1O[C@H](CO)[C@H](O)[C@H](O)[C@H]1O [Methyl beta-D-galactoside] | – | 149.97 | –
24 | O=C(O)CC(O)(CC(=O)O)C(=O)O [Citric Acid] | 148.9 | 146.11 | –
25 | CCCCCCCCCCCCC=CC[C@@H](O)[C@H](CO)NC(=O)CC=CCCCCCCCCCCCCCCCCCCCCCC [Cer(44:2)] | – | – | collision cross section (N2) ([2]; [M+H]+): 283.5 Å²
26 | NC(=NCCC[C@H](N)C(=O)O)N[C@@H](CC(=O)O)C(=O)O [Argininosuccinic Acid] | 167.39 | 172.22 | –
27 | CCCCCCCCCCCCC=CCC(=O)N[C@@H](COP(=O)([O-])OCC[N+](C)(C)C)[C@H](O)CC=CCCCCCCCCCCCC [SM(34:2)] | – | – | collision cross section (N2) ([2]; [M+H]+): 281.4 Å²
28 | CCCCC/C=C\C/C=C\C/C=C\C/C=C\CCCCCC(=O)O[C@H](COC(=O)CCCCCCCCCCCCCC)COP(=O)([O-])OCC[N+](C)(C)C [PC(37:4)] | – | – | collision cross section (N2) ([2]; [M+H]+): 290.4 Å²
29 | CCNc1nc(Cl)nc(NC(C)C)n1 [Atrazine] | 150.74 | – | –
30 | CCCCC/C=C\C[C@H]1O[C@H]1C/C=C\C/C=C\CCCC(=O)O [11(12)-EET] | – | 187.87 | –
31 | Cc1ncc(C[n+]2csc(CCOP(=O)(O)O)c2C)c(N)n1 [Thiamine Monophosphate] | 172.53 | – | –
